Results reported in ChEMBL document CHEMBL1144179, “Molecular modeling aided design of nicotinic acid receptor GPR109A agonists” (Bioorg Med Chem Lett, 2008).

Columns and labels:
[1] = Oral bioavailability in mouse; assay type: ADME, organism-based; conditions: in vivo
[2] = Volume of distribution at steady state in mouse; assay type: ADME, organism-based; conditions: in vivo, read-out: Vdss
[3] = Cmax in mouse; assay type: ADME, organism-based; conditions: in vivo
[4] = Plasma clearance in mouse; assay type: ADME, organism-based
Mus musculus = assay: Induction of vasodilation in mouse assessed as arbitrary units from vasodilation AUC curve at 100 mg/kg; assay type: functional
[5] = Half life in mouse; assay type: ADME, organism-based; conditions: in vivo
[6] = biological target: Hydroxycarboxylic acid receptor 2 (Homo sapiens) (UniProt Q8TDS4); assay: Displacement of [3H]nicotinic acid from human GPR109A receptor expressed in CHO-K1 cells at 2.5 uM; assay type: cell-based
[7] = biological target: Hydroxycarboxylic acid receptor 2 (Homo sapiens) (UniProt Q8TDS4); assay: Displacement of [3H]nicotinic acid from human GPR109A receptor expressed in CHO-K1 cells at 25 uM; assay type: cell-based

| Structure (SMILES) | Activity (Mus musculus) | Activity [6] | Activity [7] | further results |
| --- | --- | --- | --- | --- |
| O=C(CCc1ccc2cc(O)ccc2c1)Nc1ccccc1C(=O)O | 59 |  |  | bioavailability [1]: 55%; Vd [2]: 0.7 L/kg; Cmax [3]: 6.6 µM; clearance [4]: 6.2 mL/min/kg; half-life [5]: 3.2 h |
| COc1ccc(OCC(=O)Nc2ccccc2C(=O)O)cc1 |  | 69% | 33% |  |
| O=C(CCc1ccccc1)Nc1ccccc1C(=O)O |  | 88% | 52% |  |
| O=C(COc1ccccc1)Nc1ccccc1C(=O)O |  | 78% | 40% |  |
| O=C(O)c1cccnc1 [NIACIN] | 707 |  |  |  |
